Blank lines part the entries; values can stand above or below the compound they belong to. Calls of active or inactive are those of the source.
Legend:
Paired box protein Pax-8 = Paired box protein Pax-8 (Homo sapiens, UniProt Q06710); experiment: inhibitors of PAX8-driven TPO luciferase reporter, dose response, RMG-I cells, cherry-pick (AID 687027); type: functional, cell-based;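 also: luciferase reporter driven by Pax8 target thyroperoxidase promoter measured by SteadyGlo luminescence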
[1] = target: Hepatocyte nuclear factor 4-alpha (Homo sapiens, UniProt P41235); type: functional, cell-based;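 also: biochemical luminescence-based dose-response counterscreen measuring inhibition of HNF4 dimerization, run alongside a screen for blockers of ABHD5–perilipin-5 interaction; split luciferase complementation of HNF4 fusion proteins in cell lysate measuring dimerization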
[2] = target: T1, Sentrin-specific protease 1 (Homo sapiens, UniProt Q9P0U3); experiment: Dose response confirmation of small molecule inhibitors of the catalytic domain of the SUMO protease, SENP1 in a FRET assay.; type: functional; conditions: read-out: IC50_Mean
[3] = target: T1, Sentrin-specific protease 1; experiment: potency of human SENP1 inhibitors, dose response, biochemical, kinetic FRET (AID 651697); type: functional; conditions: read-out: IC50_Mean
[4] = target: T2, ATP-dependent translocase ABCB1 (Homo sapiens, UniProt P08183); experiment: ABCG2 efflux pump inhibitor potency, dose response, Ig-MXP3 cells, JC-1, flow cytometry, set 2 (AID 504566); type: functional; conditions: read-out: EC50_MICROM_;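 also: flow cytometry median green fluorescence of retained JC-1 dye; potency of efflux pump inhibition measured as rising substrate retention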
[5] = target: T2, ATP-dependent translocase ABCB1; experiment: ABCB1 efflux inhibitor potency, dose response, Jurkat-DNR cells, JC-1, flow cytometry, set 2 (AID 504569); type: functional; conditions: read-out: EC50_MICROM_;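 also: potency of pump inhibitors that raise cellular JC-1 green fluorescence up to the nicardipine level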
[6] = HEK293T cytotoxicity, dose response, cytotoxicity control for miR-122 modulator project, cell-based, activator set, cherry-pick (AID 720690); type: functional;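 also: HEK293T human cells scored for general mammalian cytotoxicity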
[7] = miR-122 activators in hepatoma reporter cells, dose response, cell-based, Huh7 psiCHECK-miR122, Renilla luciferase, cherry-picked (AID 651956); type: functional;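 also: huh7 hepatoma cells stably carrying a psiCHECK-2 miR-122 sensor plasmid; renilla luciferase signal reporting endogenous miR-122 activity after 48 h compound exposure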
Vero = experiment: Vero cell toxicity, dose response, cytotoxicity control, plate reader, cherry-pick samples (AID 687020); type: functional, cell-based; conditions: Chlorocebus sabaeus
[8] = T. cruzi growth inhibition in host cells, dose response, cell-based, plate reader, dry powder, set 2 (AID 652275); type: functional
[9] = T. cruzi intracellular amastigote growth inhibition, dose response, imaging, CA-I/72 strain, bovine embryo skeletal muscle, dry powder (AID 651885); type: functional, cell-based
Mu-type opioid receptor = Mu-type opioid receptor (Homo sapiens, UniProt P35372); type: functional, cell-based;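 also: U2OS cells with beta-arrestin recruitment to OPRM1 by beta-gal complementation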
[10] = target: 5-hydroxytryptamine receptor 2A (Mus musculus, UniProt P35363); type: functional, cell-based;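 also: CHO-K1 cells with tagged receptor and beta-arrestin; agonist potency measured as compound-induced activation of the receptor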
Galanin receptor type 3 = Galanin receptor type 3 (Homo sapiens, UniProt O60755); experiment: Fluorescence-based cell-based primary high throughput dose response assay to identify antagonists of the Galanin Receptor 3 (GalR3).; type: functional
Protein skinhead-1 = target: T3, Protein skinhead-1 (Caenorhabditis elegans, UniProt P34707); type: functional
T3 sequence (P34707 whole entry): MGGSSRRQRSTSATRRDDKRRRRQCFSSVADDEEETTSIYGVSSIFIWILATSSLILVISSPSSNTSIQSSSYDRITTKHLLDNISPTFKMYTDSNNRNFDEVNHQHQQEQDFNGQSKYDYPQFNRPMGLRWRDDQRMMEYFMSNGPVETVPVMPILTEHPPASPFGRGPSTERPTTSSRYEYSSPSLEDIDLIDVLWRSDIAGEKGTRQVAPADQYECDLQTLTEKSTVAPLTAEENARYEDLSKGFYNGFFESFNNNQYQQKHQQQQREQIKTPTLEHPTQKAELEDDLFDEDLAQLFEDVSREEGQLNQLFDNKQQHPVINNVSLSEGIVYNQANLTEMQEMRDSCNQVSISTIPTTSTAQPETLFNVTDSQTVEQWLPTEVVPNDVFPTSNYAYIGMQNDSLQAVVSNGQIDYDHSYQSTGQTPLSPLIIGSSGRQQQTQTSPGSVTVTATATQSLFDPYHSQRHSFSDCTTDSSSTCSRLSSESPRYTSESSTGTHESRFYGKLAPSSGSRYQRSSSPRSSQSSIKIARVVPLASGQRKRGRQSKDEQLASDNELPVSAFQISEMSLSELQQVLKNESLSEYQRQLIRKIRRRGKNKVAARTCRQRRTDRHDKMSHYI

[11] = target: T4, Trace amine-associated receptor 1 (Homo sapiens, UniProt Q96RJ0); experiment: Counterscreen for agonists of the human trace amine associated receptor 1 (hTAAR1): Fluorescence-based cell-based high throughput dose response assay to identify hTAAR1 agonist that also desensitize TAAR1 receptor response.; type: functional
T4 sequence (Q96RJ0 whole entry): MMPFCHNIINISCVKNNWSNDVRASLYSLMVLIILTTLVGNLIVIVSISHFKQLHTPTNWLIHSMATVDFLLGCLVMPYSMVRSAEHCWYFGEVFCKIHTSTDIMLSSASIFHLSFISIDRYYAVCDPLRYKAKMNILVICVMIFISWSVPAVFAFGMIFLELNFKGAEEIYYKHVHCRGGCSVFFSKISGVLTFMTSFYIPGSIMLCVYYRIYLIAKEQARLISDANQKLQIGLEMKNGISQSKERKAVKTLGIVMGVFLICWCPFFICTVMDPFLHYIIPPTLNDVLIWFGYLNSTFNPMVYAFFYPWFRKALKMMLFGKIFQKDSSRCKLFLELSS

Large T antigen = Large T antigen (Simian virus 40, UniProt P03070); type: functional, Betapolyomavirus macacae;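 also: Confirmatory-stage PubChem screen for compounds that inhibit SV40 T antigen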
[12] = target: T4, Trace amine-associated receptor 1; experiment: Fluorescence-based cell-based high throughput dose response assay to identify agonists of the human trace amine associated receptor 1 (TAAR1).; type: functional
[13] = target: FAD-linked sulfhydryl oxidase ALR (Homo sapiens, UniProt P55789); experiment: inhibitors of human ALR sulfhydryl oxidase, dose response, biochemical, H2O2 detection, luminescence, cherry-pick (AID 493248)
Sequence of FAD-linked sulfhydryl oxidase ALR (P55789 whole entry): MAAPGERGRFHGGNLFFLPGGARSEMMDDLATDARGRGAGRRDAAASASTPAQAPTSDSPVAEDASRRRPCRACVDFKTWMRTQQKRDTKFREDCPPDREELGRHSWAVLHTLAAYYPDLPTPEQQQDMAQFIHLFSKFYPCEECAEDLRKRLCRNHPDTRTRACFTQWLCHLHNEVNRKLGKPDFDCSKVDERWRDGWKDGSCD

T1 sequence (Q9P0U3 whole entry, the tested form may be a part): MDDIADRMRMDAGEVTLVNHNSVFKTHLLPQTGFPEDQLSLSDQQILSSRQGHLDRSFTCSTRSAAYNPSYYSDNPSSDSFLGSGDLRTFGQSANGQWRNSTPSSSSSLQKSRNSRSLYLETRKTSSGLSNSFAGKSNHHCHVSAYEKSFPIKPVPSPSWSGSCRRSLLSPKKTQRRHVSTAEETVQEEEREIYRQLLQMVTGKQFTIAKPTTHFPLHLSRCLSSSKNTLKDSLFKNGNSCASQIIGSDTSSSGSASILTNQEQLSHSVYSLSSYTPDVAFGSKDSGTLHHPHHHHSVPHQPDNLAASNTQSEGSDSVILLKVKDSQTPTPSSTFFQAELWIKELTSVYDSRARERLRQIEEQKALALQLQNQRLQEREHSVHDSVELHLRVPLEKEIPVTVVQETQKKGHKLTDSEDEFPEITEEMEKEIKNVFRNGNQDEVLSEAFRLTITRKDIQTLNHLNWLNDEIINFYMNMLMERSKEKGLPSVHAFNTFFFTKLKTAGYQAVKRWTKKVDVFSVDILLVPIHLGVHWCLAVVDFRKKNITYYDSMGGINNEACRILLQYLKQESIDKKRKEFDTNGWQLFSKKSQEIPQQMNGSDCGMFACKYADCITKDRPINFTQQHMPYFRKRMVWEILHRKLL
T2 sequence (P08183 whole entry): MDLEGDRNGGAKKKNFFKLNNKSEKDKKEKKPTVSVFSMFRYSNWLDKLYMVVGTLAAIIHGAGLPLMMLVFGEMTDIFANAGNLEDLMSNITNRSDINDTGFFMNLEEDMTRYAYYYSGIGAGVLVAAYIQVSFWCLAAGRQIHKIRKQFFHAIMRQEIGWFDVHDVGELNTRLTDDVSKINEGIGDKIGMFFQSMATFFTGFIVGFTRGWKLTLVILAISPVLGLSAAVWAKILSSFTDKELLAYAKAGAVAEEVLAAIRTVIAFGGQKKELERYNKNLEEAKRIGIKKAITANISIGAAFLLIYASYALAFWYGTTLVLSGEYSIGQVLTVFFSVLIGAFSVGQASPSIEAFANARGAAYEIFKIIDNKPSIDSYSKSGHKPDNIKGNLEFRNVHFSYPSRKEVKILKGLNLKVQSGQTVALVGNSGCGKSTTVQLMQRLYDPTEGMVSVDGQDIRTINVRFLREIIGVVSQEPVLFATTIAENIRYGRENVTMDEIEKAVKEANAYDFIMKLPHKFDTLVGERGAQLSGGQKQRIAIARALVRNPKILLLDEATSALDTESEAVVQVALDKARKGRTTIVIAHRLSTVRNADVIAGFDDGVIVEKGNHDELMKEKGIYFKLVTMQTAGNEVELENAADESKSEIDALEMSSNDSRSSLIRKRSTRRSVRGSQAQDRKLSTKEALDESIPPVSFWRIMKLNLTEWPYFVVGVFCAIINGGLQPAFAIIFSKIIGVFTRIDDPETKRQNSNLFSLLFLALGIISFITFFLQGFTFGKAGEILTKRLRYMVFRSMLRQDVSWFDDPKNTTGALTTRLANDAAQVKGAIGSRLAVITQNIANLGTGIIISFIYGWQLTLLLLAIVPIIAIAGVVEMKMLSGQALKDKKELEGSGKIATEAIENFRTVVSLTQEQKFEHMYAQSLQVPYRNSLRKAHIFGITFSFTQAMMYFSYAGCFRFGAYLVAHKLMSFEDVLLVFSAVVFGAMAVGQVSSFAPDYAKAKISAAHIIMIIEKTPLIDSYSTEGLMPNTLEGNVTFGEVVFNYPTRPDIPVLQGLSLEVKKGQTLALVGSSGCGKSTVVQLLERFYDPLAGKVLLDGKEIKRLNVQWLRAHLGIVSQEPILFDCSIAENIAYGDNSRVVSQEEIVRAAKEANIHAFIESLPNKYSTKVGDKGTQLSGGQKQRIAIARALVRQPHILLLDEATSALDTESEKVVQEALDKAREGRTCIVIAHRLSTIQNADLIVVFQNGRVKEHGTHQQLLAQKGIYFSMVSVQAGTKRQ
Sequence of Large T antigen (P03070 whole entry): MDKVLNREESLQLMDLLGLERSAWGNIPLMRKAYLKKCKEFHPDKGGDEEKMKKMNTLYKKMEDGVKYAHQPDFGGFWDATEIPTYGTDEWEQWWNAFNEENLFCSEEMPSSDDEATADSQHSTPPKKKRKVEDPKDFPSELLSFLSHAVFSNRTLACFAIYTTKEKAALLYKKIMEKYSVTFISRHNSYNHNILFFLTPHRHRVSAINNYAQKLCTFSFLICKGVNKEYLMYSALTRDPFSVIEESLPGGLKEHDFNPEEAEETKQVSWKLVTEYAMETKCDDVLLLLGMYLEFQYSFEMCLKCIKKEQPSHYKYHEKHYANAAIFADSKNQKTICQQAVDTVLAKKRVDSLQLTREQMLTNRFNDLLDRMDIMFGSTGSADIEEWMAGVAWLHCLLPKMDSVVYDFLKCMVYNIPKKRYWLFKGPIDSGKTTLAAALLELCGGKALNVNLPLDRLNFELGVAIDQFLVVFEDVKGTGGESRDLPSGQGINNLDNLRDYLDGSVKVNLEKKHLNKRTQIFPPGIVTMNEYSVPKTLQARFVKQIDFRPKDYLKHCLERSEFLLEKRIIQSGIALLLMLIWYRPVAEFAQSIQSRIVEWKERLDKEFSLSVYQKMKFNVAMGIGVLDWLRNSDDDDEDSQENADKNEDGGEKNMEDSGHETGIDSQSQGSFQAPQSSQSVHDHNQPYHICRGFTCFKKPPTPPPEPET
Sequence of Mu-type opioid receptor (P35372 whole entry): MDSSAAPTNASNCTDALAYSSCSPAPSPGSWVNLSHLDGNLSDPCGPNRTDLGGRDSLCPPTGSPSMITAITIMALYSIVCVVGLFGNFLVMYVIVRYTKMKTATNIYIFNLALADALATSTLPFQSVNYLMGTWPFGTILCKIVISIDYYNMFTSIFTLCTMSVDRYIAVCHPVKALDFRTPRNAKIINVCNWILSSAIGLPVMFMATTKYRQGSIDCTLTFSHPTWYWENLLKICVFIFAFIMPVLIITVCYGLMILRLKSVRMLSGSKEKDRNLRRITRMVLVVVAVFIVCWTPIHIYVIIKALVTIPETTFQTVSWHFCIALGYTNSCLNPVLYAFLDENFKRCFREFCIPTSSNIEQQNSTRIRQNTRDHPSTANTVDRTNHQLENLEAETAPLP
Sequence of Paired box protein Pax-8 (Q06710 whole entry, the tested form may be a part): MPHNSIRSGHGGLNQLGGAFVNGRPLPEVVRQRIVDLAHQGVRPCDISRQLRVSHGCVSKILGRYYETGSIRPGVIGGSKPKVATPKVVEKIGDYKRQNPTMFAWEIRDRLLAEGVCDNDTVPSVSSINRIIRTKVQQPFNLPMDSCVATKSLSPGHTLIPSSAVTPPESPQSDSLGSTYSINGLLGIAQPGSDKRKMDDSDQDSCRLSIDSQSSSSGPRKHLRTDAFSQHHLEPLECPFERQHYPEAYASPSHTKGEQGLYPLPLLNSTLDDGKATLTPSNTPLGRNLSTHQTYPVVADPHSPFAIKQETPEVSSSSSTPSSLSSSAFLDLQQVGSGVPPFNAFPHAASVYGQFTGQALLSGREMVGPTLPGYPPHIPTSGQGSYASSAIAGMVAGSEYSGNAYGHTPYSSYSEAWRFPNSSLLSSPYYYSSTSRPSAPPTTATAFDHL
Sequence of Hepatocyte nuclear factor 4-alpha (P41235 whole entry, the tested form may be a part): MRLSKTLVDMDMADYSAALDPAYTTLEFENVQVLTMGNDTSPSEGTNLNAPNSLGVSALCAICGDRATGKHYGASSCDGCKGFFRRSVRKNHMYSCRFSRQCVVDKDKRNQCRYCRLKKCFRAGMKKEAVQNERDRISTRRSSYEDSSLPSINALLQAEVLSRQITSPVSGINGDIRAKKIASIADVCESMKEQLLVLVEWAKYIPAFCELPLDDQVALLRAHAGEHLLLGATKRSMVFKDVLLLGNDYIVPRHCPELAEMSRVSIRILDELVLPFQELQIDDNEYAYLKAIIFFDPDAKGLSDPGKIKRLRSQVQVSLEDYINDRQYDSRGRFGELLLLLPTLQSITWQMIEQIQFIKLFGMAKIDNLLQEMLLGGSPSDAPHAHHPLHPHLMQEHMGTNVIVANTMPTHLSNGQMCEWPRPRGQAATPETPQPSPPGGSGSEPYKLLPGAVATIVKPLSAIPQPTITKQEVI
Sequence of 5-hydroxytryptamine receptor 2A (P35363 whole entry): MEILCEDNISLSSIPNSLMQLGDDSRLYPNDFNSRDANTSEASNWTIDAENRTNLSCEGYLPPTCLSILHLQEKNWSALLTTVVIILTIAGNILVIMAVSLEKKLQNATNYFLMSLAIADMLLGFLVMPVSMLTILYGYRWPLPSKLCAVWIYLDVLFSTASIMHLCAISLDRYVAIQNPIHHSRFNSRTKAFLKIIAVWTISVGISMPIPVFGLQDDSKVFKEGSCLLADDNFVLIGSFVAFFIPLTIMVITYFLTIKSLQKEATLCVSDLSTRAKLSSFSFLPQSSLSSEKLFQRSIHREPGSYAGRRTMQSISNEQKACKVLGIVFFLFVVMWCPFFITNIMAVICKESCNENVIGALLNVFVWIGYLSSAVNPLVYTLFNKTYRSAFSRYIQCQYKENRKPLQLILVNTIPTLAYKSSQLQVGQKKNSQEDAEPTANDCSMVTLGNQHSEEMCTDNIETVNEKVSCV
Sequence of Galanin receptor type 3 (O60755 whole entry): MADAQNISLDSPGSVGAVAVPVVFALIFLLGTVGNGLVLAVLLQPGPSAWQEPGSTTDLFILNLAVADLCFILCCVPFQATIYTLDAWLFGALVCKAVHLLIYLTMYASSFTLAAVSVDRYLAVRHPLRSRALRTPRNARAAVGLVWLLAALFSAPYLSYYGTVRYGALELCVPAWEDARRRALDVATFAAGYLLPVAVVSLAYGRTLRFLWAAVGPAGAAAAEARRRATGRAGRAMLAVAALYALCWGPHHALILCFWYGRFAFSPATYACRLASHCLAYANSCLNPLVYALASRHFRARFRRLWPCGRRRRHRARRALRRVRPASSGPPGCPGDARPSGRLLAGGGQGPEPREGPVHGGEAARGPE

Compound: C[C@H](NC(=O)C[C@H]1CC[C@@H]2[C@@H](COc3ccc(NS(=O)(=O)c4ccc(Cl)cc4)cc3C(=O)N2C)O1)c1ccccc1
AC50 [6]: 29.5 µM (active)
AC50 [7]: 18.2 µM (active)

Compound: O=C(NCCN1CCC2(CC1)C(=O)NCN2c1ccccc1)c1ccccc1F
AC50 (Vero): 31.5 µM (active)

Compound: CC(C)N1C[C@@H](CN(C)Cc2ccc(Cl)cc2)Oc2c(NC(=O)c3ccnn3C)cccc2C1=O
AC50 [8]: 0.334 µM (active)

Compound: CC(C)N1C[C@H](C)[C@@H](CN(C)C(=O)OC(C)(C)C)Oc2c(NC(=O)c3ccncc3)cccc2C1=O
IC50 [9]: > 20 µM (inactive)

Now from value to compound, other results behind:

AC50 (Paired box protein Pax-8): 3.91 µM (active)
IC50 [1]: 32.1 µM (inactive)
Compound: C#CCN(C[C@@H]1[C@@H](OC(=O)NCc2ccc(OC)c(OC)c2)[C@@H](OC(=O)NCc2ccc(OC)c(OC)c2)Cn2c(=O)ccc(=O)n21)S(=O)(=O)c1ccc(C)cc1

IC50 [2]: 19.4 µM (active)
IC50 [3]: 76.9 µM (inactive)
Compound: Nc1ccc2c(c1)-c1ccc(F)cc1C2=O

EC50 [4]: 2.66 µM (active)
EC50 [5]: 3.16 µM (active)
Compound: O=C(c1cccc(Cl)c1)N1CCN(c2cc(-c3ccccc3)nc3cc(-c4cccc(Cl)c4)nn23)CC1

EC50 (Mu-type opioid receptor): 92.5 µM (inactive)
EC50 [10]: 8.14 µM (active)
IC50 (Galanin receptor type 3): 3.83 µM (active)
IC50 (Protein skinhead-1): > 100 µM (inactive)
IC50 (Large T antigen): > 100 µM (active)
EC50 [12]: 6.54 µM (active)
AC50 [13]: 3.83 µM (active)
Compound: Oc1cc2c(c(Cl)c1O)CCNCC2c1ccccc1 (centres undefined)
IC50 [11]: > 29.9 µM (inactive)

From ChEMBL document CHEMBL1201862, “PubChem BioAssay data set” (2004)
